Results taken from patent US20230135894A1, “MK2 DEGRADERS AND USES THEREOF” (Kymera Therapeutics, Inc., priority 2021, published 2023).

Assays:
MK2 [1] = target: T1, MK2 (Homo sapiens, UniProt P49137); assay: MK2 degradation in human SW1353 cells (MSD, 24 h); type: cell-based; design: endogenous in cells; host or cells: SW-1353 (ATCC HTB-94); key to MK2 MSD SW1353 degradation 24 h GMean External Abs DC50: A (<0.001 μM); B (0.001-0.01 μM); C (0.01-0.1 μM); D (>0.1 μM); —: “-”=not tested or inactive; key to MK2 MSD SW 1353 24 h Dmax %: —: “-”=not tested or inactive; details: for Dmax: read-out: MK2 MSD SW 1353 24 h Dmax %; for DC50: read-out: MK2 MSD SW1353 degradation 24 h GMean External Abs DC50
T1 sequence (P49137 whole entry): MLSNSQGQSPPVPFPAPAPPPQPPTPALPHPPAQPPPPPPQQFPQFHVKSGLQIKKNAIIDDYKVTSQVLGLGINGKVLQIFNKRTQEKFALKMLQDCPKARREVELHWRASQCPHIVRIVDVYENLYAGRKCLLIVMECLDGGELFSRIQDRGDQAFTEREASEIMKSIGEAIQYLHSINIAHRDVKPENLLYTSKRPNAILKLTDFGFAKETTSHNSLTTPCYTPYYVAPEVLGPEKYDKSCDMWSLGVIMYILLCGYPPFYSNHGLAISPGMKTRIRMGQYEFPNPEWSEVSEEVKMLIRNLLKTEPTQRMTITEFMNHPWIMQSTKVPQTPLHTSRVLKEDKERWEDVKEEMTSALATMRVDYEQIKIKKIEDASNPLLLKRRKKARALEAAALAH
Summary of the method: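 DC50 derived by 4-parameter logistic fit, with DMSO-treated signal as top and lysis-buffer signal as bottom. Remaining MK2 was measured by MSD electrochemiluminescent sandwich assay in RIPA lysates of human SW1353 cells exposed for 24 h at 37 °C to serially diluted compound in 0.1% DMSO.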

MK2 [2] = target: T1, MK2; assay: MK2 degradation in human THP-1 monocytic cells (MSD, 24 h); type: cell-based; design: endogenous in cells; key to MK2 MSD THP-1 degradation 24 h GMean External Abs DC50: A (<0.001 μM); B (0.001-0.01 μM); C (0.01-0.1 μM); D (>0.1 μM); —: “-”=not tested or inactive; details: for Dmax: THP-1, THP-1 cells; for MK2 MSD THP-1 degradation 24 h GMean External Abs DC50 / DC50: THP-1 cells; for DC50: read-out: MK2 MSD THP-1 degradation 24 h GMean External Abs DC50
Summary of the method: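 Readout: residual MK2 protein in THP-1 lysates, measured by MSD electrochemiluminescence sandwich assay after 24 h compound exposure (≤10-point serial dilutions, 0.1% DMSO, 37 °C). Curves normalised between lysis-buffer and DMSO-cell signals; DC50 by 4-parameter logistic fit.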

Structure (SMILES)	MK2 MSD SW1353 degradation 24 h GMean External Abs DC50 (MK2 [1])	Dmax (MK2 [1])	Dmax (MK2 [2])	MK2 MSD THP-1 degradation 24 h GMean External Abs DC50 (MK2 [2])	DC50 (MK2 [1])	DC50 (MK2 [2])	MK2 MSD SW 1353 24 h Dmax % (MK2 [1])
C[C@@H]1CNc2c(sc3ccc4nc(-c5ccc(N6CCN(CCCCOc7ccc(C8CCC(=O)NC8=O)cc7)CC6)nc5)ccc4c23)C(=O)N1 (stereo partly drawn) [Compound I-183]	—	> 75%	> 75%	—			
C[C@@H]1CNc2c(sc3ccc4nc(N5CCN(CC6CCN(c7ccc(-c8ccc9c(c8)n(C)c(=O)n9C8CCC(=O)NC8=O)cc7)CC6)CC5)ccc4c23)C(=O)N1 (stereo partly drawn) [Compound I-184]	—	> 75%	> 75%	—			
C[C@@H]1CNc2c(sc3ccc4nc(N5CCC6(CC5)CC(N5CCN(c7ccc8c(c7)n(C)c(=O)n8C7CCC(=O)NC7=O)CC5)C6)ccc4c23)C(=O)N1 (stereo partly drawn) [Compound I-185]	—	> 75%	> 75%	—			
C#Cc1cc(-c2ccc3c(ccc4sc5c(c43)NC[C@@H](C)NC5=O)n2)cc(N2CCN(CC3CCN(c4ccc5c(c4)n(C)c(=O)n5C4CCC(=O)NC4=O)CC3)CC2)c1 (stereo partly drawn) [Compound I-186]	—	> 75%	> 75%	—			
C[C@@H]1CNc2c(sc3ccc4nc(N5C[C@@H]6C[C@H]5CN6CC5CCN(c6cccc7c6n(C)c(=O)n7C6CCC(=O)NC6=O)CC5)ccc4c23)C(=O)N1 (stereo partly drawn) [Compound I-187]		< 50%	< 50%		> 0.1 µM	> 0.1 µM	
O=C1CCN(c2cncc3c(N4CC(CN5CCN(c6ccc(-c7cc(-c8cc9c([nH]8)C8(CC8)CNC9=O)ccn7)cc6)CC5)C4)cccc23)C(=O)N1 [Compound I-188]		> 75%	> 75%		0.001 to 0.01 µM	0.001 to 0.01 µM	
Cn1c(=O)n(C2CCC(=O)NC2=O)c2ccc(N3CC(CN4CCN(c5ccc(-c6cc(-c7cc8c([nH]7)C7(CC7)CNC8=O)ccn6)cc5)CC4)C3)cc21 (stereo not drawn) [Compound I-189]		> 75%	> 75%		< 0.001 µM	< 0.001 µM	
Cn1c(=O)n(C2CCC(=O)NC2=O)c2cccc(N3CC(CN4CCN(c5ccc(-c6cc(-c7cc8c([nH]7)C7(CC7)CNC8=O)ccn6)cc5)CC4)C3)c21 (stereo not drawn) [Compound I-190]		> 75%	> 75%		< 0.001 µM	< 0.001 µM	
Cn1c(=O)n(C2CCC(=O)NC2=O)c2cccc(CCCN3CCN(c4ccc(-c5cc(-c6cc7c([nH]6)C6(CCCC6)CNC7=O)ccn5)cc4)CC3)c21 (stereo not drawn) [Compound I-191]		> 75%	50 to 75%		0.001 to 0.01 µM	0.01 to 0.1 µM	
Cn1c(=O)n(C2CCC(=O)NC2=O)c2ccc(N3CCC(CN4CCN(c5ccc(-c6cc(-c7cc8c([nH]7)C7(CCCC7)CNC8=O)ccn6)cc5)CC4)CC3)cc21 (stereo not drawn) [Compound I-192]		> 75%	> 75%		< 0.001 µM	< 0.001 µM	
Cn1c(=O)n(C2CCC(=O)NC2=O)c2ccc(N3CCC(CN4CCN(c5cc(-c6cc(-c7cc8c([nH]7)CCNC8=O)ccn6)cc(C6CCCC6)c5)CC4)CC3)cc21 (stereo not drawn) [Compound I-193]			< 50%		> 0.1 µM	> 0.1 µM	—
Cc1cc(-c2cc(-c3cc4c([nH]3)C3(CC3)CNC4=O)ccn2)cc(C)c1N1CCN(CC2CCN(c3ccc4c(c3)n(C)c(=O)n4C3CCC(=O)NC3=O)CC2)CC1 (stereo not drawn) [Compound I-194]		> 75%	> 75%		< 0.001 µM	< 0.001 µM	
C[C@@H]1CNc2c(sc3ccc4nc(-c5ccc(N6CCN(C[C@H]7CCN(c8ccc9c(c8)n(C)c(=O)n9C8CCC(=O)NC8=O)C7)CC6)cc5)ccc4c23)C(=O)N1 (stereo partly drawn) [Compound I-195]		> 75%	> 75%		< 0.001 µM	< 0.001 µM	
C[C@@H]1CNc2c(sc3ccc4nc(N5CCN(CC6CCN(c7cccc8c7n(C)c(=O)n8C7CCC(=O)NC7=O)CC6)CC5)ccc4c23)C(=O)N1 (stereo partly drawn) [Compound I-196]	—		> 75%			0.001 to 0.01 µM	—
O=C1CCN(c2cncc3c(N4CC(CN5CCN(c6ccc(-c7cc(-c8cc9c([nH]8)CCNC9=O)ccn7)cc6)CC5)C4)cccc23)C(=O)N1 [Compound I-197]	—		> 75%			0.01 to 0.1 µM	—
O=C1CCN(c2cncc3c(N4CCN(CC5CCN(c6ccc(-c7cc(-c8cc9c([nH]8)CCNC9=O)ccn7)cc6)CC5)CC4)cccc23)C(=O)N1 [Compound I-198]	—		> 75%			0.01 to 0.1 µM	—
Cn1c(=O)n(C2CCC(=O)NC2=O)c2cccc(CCCN3CCN(c4ccc(-c5cc(-c6cc7c([nH]6)C6(CC6)CNC7=O)ccn5)cn4)CC3)c21 (stereo not drawn) [Compound I-199]	—	> 75%	> 75%			0.001 to 0.01 µM	
Cn1c(=O)n(C2CCC(=O)NC2=O)c2cccc(CCN3CCN(c4ccc(-c5cc(-c6cc7c([nH]6)C6(CC6)CNC7=O)ccn5)cn4)CC3)c21 (stereo not drawn) [Compound I-200]	—	> 75%	> 75%			0.001 to 0.01 µM	
Cn1c(=O)n(C2CCC(=O)NC2=O)c2ccc(CCN3CCN(c4ccc(-c5cc(-c6cc7c([nH]6)C6(CC6)CNC7=O)ccn5)cn4)CC3)cc21 (stereo not drawn) [Compound I-201]	—		< 50%			> 0.1 µM	—
Cn1c(=O)n(C2CCC(=O)NC2=O)c2ccc(CCN3CCN(c4ccc(-c5cc(-c6cc7c([nH]6)C6(CC6)CNC7=O)ccn5)cc4)CC3)cc21 (stereo not drawn) [Compound I-202]	—		< 50%			> 0.1 µM	—
Cn1c(=O)n(C2CCC(=O)NC2=O)c2cccc(CCN3CCN(c4ccc(-c5cc(-c6cc7c([nH]6)C6(CC6)CNC7=O)ccn5)cc4)CC3)c21 (stereo not drawn) [Compound I-203]	—	> 75%	> 75%			0.001 to 0.01 µM	
Cn1c(=O)n(C2CCC(=O)NC2=O)c2cccc(CCCN3CCN(c4ccc(-c5cc(-c6cc7c([nH]6)C6(CCC6)CNC7=O)ccn5)cc4)CC3)c21 (stereo not drawn) [Compound I-204]	—		> 75%			0.001 to 0.01 µM	—
Cn1c(=O)n(C2CCC(=O)NC2=O)c2ccc(N3CCC(CN4CCN(c5ccc(-c6cc(-c7cc8c([nH]7)C7(CCC7)CNC8=O)ccn6)cc5)CC4)CC3)cc21 (stereo not drawn) [Compound I-205]	—		> 75%			< 0.001 µM	—
Cn1c(=O)n(C2CCC(=O)NC2=O)c2ccc(N3CCC(CN4CCN(c5cc(-c6ccc7cc[nH]c7c6)cc(-c6cc(-c7cc8c([nH]7)CCNC8=O)ccn6)c5)CC4)CC3)cc21 (stereo not drawn) [Compound I-206]	—		50 to 75%			0.001 to 0.01 µM	—
